Reference: patent US6503935B1, “Imidazoles and related compounds as α1A agonists” (Abbott Laboratories, priority 1998, dated 2003)
pKi: −log10 of the molar value. Where a name gives a salt, the structure may show the parent alone.

Experiments:
α1D (rat aorta) = target: T1, α1D (rat aorta) (Rattus norvegicus, UniProt P23944); experiment: Agonist contraction of smooth muscle tissue, rat aorta; type: cell-based; conditions: rat aorta, endothelium removed; for EC50: read-out: Agonist Tissue Response (pD2) α1D (rat aorta) (converted)
T1 construct: α1B (rat spleen) and α1D (rat aorta) receptors; from tissue; host or cells: rat aorta strips, endothelium removed
T1 sequence (P23944 1-561): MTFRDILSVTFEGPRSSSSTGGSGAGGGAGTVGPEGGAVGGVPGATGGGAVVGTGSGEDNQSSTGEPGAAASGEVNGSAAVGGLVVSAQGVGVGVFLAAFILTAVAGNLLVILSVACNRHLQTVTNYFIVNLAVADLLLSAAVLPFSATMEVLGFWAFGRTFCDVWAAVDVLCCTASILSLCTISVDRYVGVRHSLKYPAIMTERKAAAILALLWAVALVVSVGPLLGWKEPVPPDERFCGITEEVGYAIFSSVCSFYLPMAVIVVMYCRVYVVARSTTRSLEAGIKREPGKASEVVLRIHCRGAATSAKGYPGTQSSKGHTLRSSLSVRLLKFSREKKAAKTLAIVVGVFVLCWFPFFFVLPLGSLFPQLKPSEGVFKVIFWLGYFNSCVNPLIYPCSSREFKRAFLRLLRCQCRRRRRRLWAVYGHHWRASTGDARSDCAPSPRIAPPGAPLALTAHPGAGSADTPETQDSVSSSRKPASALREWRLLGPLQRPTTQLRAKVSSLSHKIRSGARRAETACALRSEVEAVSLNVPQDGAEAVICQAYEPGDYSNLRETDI

[1] = target: T2, α1A (rat submaxillary gland) (Rattus norvegicus, UniProt P43140); experiment: Radioligand binding with [3H]-prazosin, α1A; conditions: rat submaxillary gland, [3H]-prazosin
T2 construct: α1A (rat submaxillary gland); from tissue; host or cells: rat submaxillary gland
T2 sequence (P43140 1-466): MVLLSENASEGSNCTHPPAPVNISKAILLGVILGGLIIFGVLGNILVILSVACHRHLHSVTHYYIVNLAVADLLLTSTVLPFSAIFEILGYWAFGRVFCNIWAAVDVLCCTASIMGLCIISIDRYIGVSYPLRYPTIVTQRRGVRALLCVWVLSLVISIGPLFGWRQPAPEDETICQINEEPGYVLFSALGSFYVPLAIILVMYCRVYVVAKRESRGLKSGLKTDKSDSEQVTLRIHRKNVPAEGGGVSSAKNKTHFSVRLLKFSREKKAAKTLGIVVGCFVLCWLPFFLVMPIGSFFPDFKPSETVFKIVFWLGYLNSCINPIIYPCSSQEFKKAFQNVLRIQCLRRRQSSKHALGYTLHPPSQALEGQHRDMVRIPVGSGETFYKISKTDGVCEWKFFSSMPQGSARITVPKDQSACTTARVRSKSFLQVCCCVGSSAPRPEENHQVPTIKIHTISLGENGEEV
Summary of the method: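 Radioligand binding with [3H]-prazosin: α1A from rat submaxillary gland; α1b hamster receptor and α1d rat receptor, each expressed in mouse fibroblasts.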

Anesthetized Dogs = experiment: Mean arterial pressure (MAP) in anesthetized dogs; type: in vivo, dog; conditions: iv dose causing a maximum increase in MAP of 20 mm Hg, anesthetized female dogs
Summary of the method: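 Female dogs (12–15 kg) with carotid telemetry implants, thiopental 15 mg/kg i.v. then isoflurane (2.5 to 3 volume %) anesthesia; increasing i.v. doses of agonist with return to baseline between doses. MAP from telemetered arterial pressure; ED20 = dose raising MAP by 20 mm Hg, compared with IUP ED5 as selectivity ratio.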

α1B (rat spleen) = target: T3, α1B (rat spleen) (Rattus norvegicus, UniProt P15823); experiment: Agonist contraction of smooth muscle tissue, rat spleen; type: cell-based; conditions: rat spleen; read-out: Agonist Tissue Response (pD2) α1B (rat spleen) (converted)
T3 construct: α1B (rat spleen) and α1D (rat aorta) receptors; from tissue; host or cells: rat spleen
T3 sequence (P15823 1-515): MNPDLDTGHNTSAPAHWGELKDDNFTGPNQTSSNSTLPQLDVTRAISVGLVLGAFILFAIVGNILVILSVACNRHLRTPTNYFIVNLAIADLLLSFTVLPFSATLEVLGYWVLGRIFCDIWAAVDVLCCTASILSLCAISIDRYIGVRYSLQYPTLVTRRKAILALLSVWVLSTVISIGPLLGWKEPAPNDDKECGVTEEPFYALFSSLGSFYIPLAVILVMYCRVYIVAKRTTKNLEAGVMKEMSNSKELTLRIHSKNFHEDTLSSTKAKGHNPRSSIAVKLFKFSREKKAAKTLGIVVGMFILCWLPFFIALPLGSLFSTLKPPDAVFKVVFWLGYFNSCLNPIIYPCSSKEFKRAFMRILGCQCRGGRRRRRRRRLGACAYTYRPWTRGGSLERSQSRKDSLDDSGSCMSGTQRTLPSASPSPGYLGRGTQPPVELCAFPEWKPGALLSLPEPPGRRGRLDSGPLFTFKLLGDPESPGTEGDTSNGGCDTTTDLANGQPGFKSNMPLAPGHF

With `CCS(=O)(=O)Nc1cccc2c1CCCC2c1c[nH]cn1.O=C(O)/C=C\C(=O)O` (stereo not drawn) [Example 12, N-[5-(1H-imidazol-4-yl)-5,6,7,8-tetrahydro-1-naphthalenyl]ethanesulfonamide, maleate] the EC50 (α1D (rat aorta)) was over 1000 µM, the pKi [1] was 7.02 and the “Mean MAP ED20” value (Anesthetized Dogs) was 69.3 nmol/kg. The EC50 (α1B (rat spleen)) was over 1000 µM.

For `CC(c1cccc(NS(C)(=O)=O)c1)c1c[nH]cn1.O=C(O)/C=C\C(=O)O` (stereo not drawn) [Example 31, N-[3-[1-(1H-imidazol-4-yl)ethyl]phenyl]methanesulfonamide, maleate], the EC50 (α1D (rat aorta)) was over 1000 µM, the pKi [1] was 6.08 and the “Mean MAP ED20” value (Anesthetized Dogs) was 234 nmol/kg. For the same compound, the EC50 (α1B (rat spleen)) was over 1000 µM.

In the case of `Cc1c(Cc2c[nH]cn2)cccc1NS(C)(=O)=O.O=C(O)/C=C\C(=O)O` [Example 28, N-[3-(1H-imidazol-4-ylmethyl)-2-methylphenyl]methanesulfonamide, maleate], the EC50 (α1D (rat aorta)) was over 1000 µM, the pKi [1] was 6.28 and the “Mean MAP ED20” value (Anesthetized Dogs) was 158 nmol/kg. It also gave an EC50 (α1B (rat spleen)) of 7.76 µM.

With `CCS(=O)(=O)Nc1cccc2c1CCCC2c1c[nH]cn1.O=C(O)/C=C\C(=O)O` (single isomer, unassigned; (-)) [Example 34, (−)-N-[5-(1H-imidazol-4-yl)-5,6,7,8-tetrahydro-1-naphthalenyl]ethanesulfonamide, maleate] the “Agonist Tissue Response (pD2) α1D (rat aorta)” value (α1D (rat aorta)) was under 3.00, the pKi [1] was 5.89 and the “Mean MAP ED20” value (Anesthetized Dogs; maleate) was over 1000 nmol/kg. The EC50 (α1B (rat spleen)) was over 1000 µM.

`O=C(Nc1cccc2c1CCCC2c1c[nH]cn1)C(F)(F)F` (stereo not drawn) [Example 17, 2,2,2-trifluoro-N-[5-(1H-imidazol-4-yl)-5,6,7,8-tetahydro-1-naphthalenyl]acetamide, maleate] was tested, and the EC50 (α1D (rat aorta)) was over 1000 µM, the pKi [1] was 6.78 and the “Mean MAP ED20” value (Anesthetized Dogs) was 216 nmol/kg. The EC50 (α1B (rat spleen)) was 3.39 µM.

`CN(c1cccc2c1CCCC2c1c[nH]cn1)S(C)(=O)=O` (stereo not drawn) [Example 15, N-[5,6,7,8-tetrahydro-5-(1H-imidazol-4-yl)-1-naphthalenyl]-N-methylmethanesulfonmamide, maleate] was tested, and the EC50 (α1D (rat aorta)) was over 1000 µM, the pKi [1] was 6.69 and the “Mean MAP ED20” value (Anesthetized Dogs) was 225 nmol/kg. It also gave an EC50 (α1B (rat spleen)) of 2.24 µM.

In the case of `C=C(c1cccc(NS(=O)(=O)CC)c1)c1c[nH]cn1` [Example 45, N-{3-[1-(1H-imidazol-4-yl)vinyl]phenyly}ethanesulfonamide, maleate], the EC50 (α1D (rat aorta)) was over 1000 µM, the pKi [1] was 6.25 and the “Mean MAP ED20” value (Anesthetized Dogs) was 633 nmol/kg. For the same compound, the EC50 (α1B (rat spleen)) was over 1000 µM.

In the case of `CS(=O)(=O)Nc1cccc(Cc2c[nH]cn2)c1.O=C(O)/C=C\C(=O)O` [Example 21, N-[3-(1H-imidazol-4-ylmethyl)phenyl]methanesulfonamide, maleate], the EC50 (α1D (rat aorta)) was over 1000 µM, the pKi [1] was 6.44 and the “Mean MAP ED20” value (Anesthetized Dogs) was 52.3 nmol/kg. For the same compound, the EC50 (α1B (rat spleen)) was over 1000 µM.

For `COc1ccc(NS(C)(=O)=O)c2c1C(c1c[nH]cn1)CCC2` (stereo not drawn) [Example 26, N-[5,6,7,8-tetrahydro-(1H-imidazol-4-yl)-4-methoxyy-1-naphthalenyl]methanesulfonamide, maleate], the EC50 (α1D (rat aorta)) was over 1000 µM, the pKi [1] was 5.77 and the “Mean MAP ED20” value (Anesthetized Dogs) was 1850 nmol/kg. The EC50 (α1B (rat spleen)) was 18.2 µM.

For `CCS(=O)(=O)Nc1cccc(Cc2c[nH]cn2)c1C.O=C(O)/C=C\C(=O)O` [Example 29, N-[3-(1H-imidazol-4-ylmethyl)-2-methylphenyl]ethanesulfonamide, maleate], the EC50 (α1D (rat aorta)) was over 1000 µM, the pKi [1] was 6.59 and the “Mean MAP ED20” value (Anesthetized Dogs) was 202 nmol/kg. For the same compound, the EC50 (α1B (rat spleen)) was over 1000 µM.

`CS(=O)(=O)Nc1ccc(F)c2c1CCCC2c1c[nH]cn1.O=C(O)/C=C\C(=O)O` (stereo not drawn) [Example 44, N-[4-fluoro-5-(1H-imidazol-4-yl)-5,6,7,8-tetrahydro-1-naphthalenyl]methanesulfonamide, maleate] was tested, and the EC50 (α1D (rat aorta)) was over 1000 µM, the pKi [1] was 6.51 and the “Mean MAP ED20” value (Anesthetized Dogs) was 632 nmol/kg. The EC50 (α1B (rat spleen)) was over 1000 µM.

`CCS(=O)(=O)Nc1cccc2c1CCCC2c1c[nH]cn1.O=C(O)/C=C\C(=O)O` (single isomer, unassigned; (+)) [Example 33, (+)-N-[5-(1H-imidazol-4-yl)-5,6,7,8-tetrahydro-1-naphthalenyl]ethanesulfonamide, maleate] was tested, and the EC50 (α1D (rat aorta)) was over 1000 µM, the pKi [1] was 7.33 and the “Mean MAP ED20” value (Anesthetized Dogs; maleate) was 34.0 nmol/kg. The EC50 (α1B (rat spleen)) was 3.8 µM.
